From US20100216795A1, “TNIK INHIBITOR AND THE USE” (priority 2008, published 2010)

How the values were obtained:
Type in all cases: biochemical
[1] = target: T1, human TNIK (N-terminal segment, TNIK_N) (Homo sapiens, UniProt Q9UKE5); assay: TNIK kinase assay (mobility shift); conditions: stated in text of Test Example 2
T1 construct: made in house; host or cells: Sf21 insect cells (baculovirus)
From the text: A cDNA encoding the N-terminal segment (TNIK_N, residues 1-314) containing the kinase domain of human TNIK (NM_015028.1) was amplified from cDNA mixture synthesized from human tissue (Biochain) by PCR using the following primers: 5′-[…]-3′ ([SEQ ID NO:1]: forward primer, the underlined nucleotides indicates the location of a EheI site); 5′-[…]-3′ ([SEQ ID NO:2]: reverse primer, the underlined nucleotides indicates the location of a NotI site). The cDNA was subcloned into baculovirus transfer vector pFastBac_GSTb that includes protease cleavage site and glutathione S-transferase purification tag (GST-tag). The plasmid was purified and the insertion of the pFastBac_GSTb-TNIK_N was confirmed by DNA sequencing. Then E. coli DH10Bac competent cells were transformed with the plasmid to prepare the recombinant bacmid according to the instructions for the Bac-to-Bac™ baculovirus expression systems (Invitrogen). The Sf9 cells were transfected with the recombinant bacmid containing pFastBac_GSTb-TNIK_N using Cellfectin Reagent (Invitrogen) in SF-900II serum free media (Invitrogen). The viral supernatant was collected from the medium 72 h after transfection. The virus was amplified three times by infecting actively growing Sf9 or Sf21 cells in Grace's insect media (Invitrogen) supplemented with 10% FCS and an antibiotic-antimycotic reagent (Invitrogen) for 72 h at 27° C. in T-flask or roller bottles. The titer of amplified TNIK_N virus was estimated at 2.36×10^8 pfu/ml by using BacPAK™ Baculovirus Rapid Titer kit (Clontech).
Log-phase Sf21 cells (2×10^6 cells/ml) in the Grace's insect media were infected with the recombinant baculovirus at MOI of 3.0 and incubated in roller bottles (250 ml media per bottle) for 72 h at 27° C., after which, the cells were collected by centrifugation, and the cell pellet washed with cold PBS and kept at −80° C. until purification. The following purification procedures were carried out at 4° C. The frozen cells were thawed on ice and lysed in lysis buffer (50 mM Tris-HCl, pH 7.5, 150 mM NaCl, 1% Nonidet P-40, 5 mM DTT, 0.5 mM EDTA, 0.5 mM EGTA) supplemented with 1 mM phenylmethansulfonylfluoride, 2 μg/ml leupeptin, 2 μg/ml aprotinin, 1 mM NaF, 100 μM sodium orthovanadate, and 1 μM cantharidin by sonication. The suspended lysate was cleared by centrifugation at 9000 g for 20 min and the supernatant was incubated for 1 h with glutathione Sepharose beads (GE Healthcare). The beads were suspended in buffer-H (50 mM Tris-HCl, pH 7.5, 1 M NaCl, 1 mM DTT, 0.5 mM EDTA, 0.5 mM EGTA and 0.05% Brij35) and washed with buffer-H followed by buffer-L (50 mM Tris-HCl, pH 7.5, 150 mM NaCl, 1 mM DTT, 0.5 mM EDTA, 0.5 mM EGTA, 0.05% Brij35) in an Econo-pack column (BIO-RAD). The bound TNIK_N was eluted with elution buffer (50 mM Tris-HCl, pH 8.0, 150 mM NaCl, 1 mM DTT, 10% glycerol, 0.5 mM EDTA, 0.5 mM EGTA and 5 mM reduced glutathione). The eluted fractions were collected and determined the protein concentration by Bradford reagent (BIO-RAD). The TNIK_N fractions were pooled and desalted using 10DG column (BIORAD) equilibrated with the storage buffer (50 mM Tris-HCl, pH 7.5, 150 mM NaCl, 1 mM DTT, 10% glycerol, 0.05% Brij35). The purified TNIK_N was characterized by electrophoresis using 4-20% polyacrylamide gels and matrix-assisted laser desorption/ionization reflection time-of-flight (MALDI-TOF) mass spectrometry on a Voyager-DE RP MALDI/TOF (Applied Biosystems). TNIK_N was confirmed by the molecular weight and MASCOT Peptide Mass Fingerprint.
The kinase assays were conducted in a 20 μl volume using 384-well plates (Greiner). The reaction mixture consists of compound or vehicle (1% DMSO), 0.08 ng/μl TNIK_N, 1 μM FITC-labeled substrate peptides, FITC-x-Lys-Tyr-Lys-Thr-Leu-Arg-Gln ([SEQ ID NO.3], x: ε-aminocaproic acid), 20 mM Hepes, pH 7.5, 0.01% Triton X-100, 5 mM MgCl2, 25 μM ATP and 2 mM DTT. As blank, TNIK_N was excluded from the reaction mixture of vehicle (1% DMSO). […]

PKCa = target: T2, PKCa (Homo sapiens, UniProt P17252); assay: Selectivity profiling, QuickScout STK Screening Panel
T2 construct: purchased Carna Biosciences
Description: (§1) The inhibitory effects of Compound 1 against 20 tyrosine kinases and 30 serine/threonine kinases were investigated using QuickScout™ TK and STK Screening Panel (Carna Biosciences, Kobe Japan). […] The results reveal that Compound 1 inhibits TNIK_N more potently (IC50; 9 nM) than the other 50 kinases.

CK1e = target: T3, CK1e (Homo sapiens, UniProt P49674); assay: as above
T3 construct: purchased Carna Biosciences
T3 sequence (P49674 whole entry): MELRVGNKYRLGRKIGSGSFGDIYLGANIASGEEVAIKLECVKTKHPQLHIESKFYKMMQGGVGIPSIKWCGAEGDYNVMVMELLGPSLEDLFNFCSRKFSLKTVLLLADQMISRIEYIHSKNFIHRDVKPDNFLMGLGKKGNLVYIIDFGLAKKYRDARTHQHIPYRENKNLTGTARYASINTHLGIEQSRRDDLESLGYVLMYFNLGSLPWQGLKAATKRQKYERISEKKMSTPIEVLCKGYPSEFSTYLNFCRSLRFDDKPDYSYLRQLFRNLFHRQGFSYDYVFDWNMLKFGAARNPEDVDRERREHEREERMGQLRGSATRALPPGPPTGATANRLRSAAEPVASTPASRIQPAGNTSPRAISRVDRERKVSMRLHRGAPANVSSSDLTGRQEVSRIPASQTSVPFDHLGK
Description: as §1

JNK2 = target: T4, JNK2 (Homo sapiens, UniProt P45984); assay: as above
T4 construct: purchased Carna Biosciences
T4 sequence (P45984 whole entry): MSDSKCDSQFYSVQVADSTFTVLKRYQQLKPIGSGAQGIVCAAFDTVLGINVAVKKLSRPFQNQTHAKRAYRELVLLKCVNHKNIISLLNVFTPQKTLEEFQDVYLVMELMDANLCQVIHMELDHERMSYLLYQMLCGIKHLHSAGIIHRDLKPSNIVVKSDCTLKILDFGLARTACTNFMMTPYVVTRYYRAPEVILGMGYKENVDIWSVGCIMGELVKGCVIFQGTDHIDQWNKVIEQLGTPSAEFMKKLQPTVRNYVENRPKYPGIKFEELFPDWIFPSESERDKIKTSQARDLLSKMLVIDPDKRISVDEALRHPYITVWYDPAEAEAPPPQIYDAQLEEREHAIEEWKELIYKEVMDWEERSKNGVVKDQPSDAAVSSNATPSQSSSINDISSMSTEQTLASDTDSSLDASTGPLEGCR
Description: as §1

IKKb = target: T5, IKKb (Homo sapiens, UniProt O14920); assay: as above
T5 construct: purchased Carna Biosciences
Description: as §1

PAK4 = target: T6, PAK4 (Homo sapiens, UniProt O96013); assay: as above
T6 construct: purchased Carna Biosciences
T6 sequence (O96013 whole entry): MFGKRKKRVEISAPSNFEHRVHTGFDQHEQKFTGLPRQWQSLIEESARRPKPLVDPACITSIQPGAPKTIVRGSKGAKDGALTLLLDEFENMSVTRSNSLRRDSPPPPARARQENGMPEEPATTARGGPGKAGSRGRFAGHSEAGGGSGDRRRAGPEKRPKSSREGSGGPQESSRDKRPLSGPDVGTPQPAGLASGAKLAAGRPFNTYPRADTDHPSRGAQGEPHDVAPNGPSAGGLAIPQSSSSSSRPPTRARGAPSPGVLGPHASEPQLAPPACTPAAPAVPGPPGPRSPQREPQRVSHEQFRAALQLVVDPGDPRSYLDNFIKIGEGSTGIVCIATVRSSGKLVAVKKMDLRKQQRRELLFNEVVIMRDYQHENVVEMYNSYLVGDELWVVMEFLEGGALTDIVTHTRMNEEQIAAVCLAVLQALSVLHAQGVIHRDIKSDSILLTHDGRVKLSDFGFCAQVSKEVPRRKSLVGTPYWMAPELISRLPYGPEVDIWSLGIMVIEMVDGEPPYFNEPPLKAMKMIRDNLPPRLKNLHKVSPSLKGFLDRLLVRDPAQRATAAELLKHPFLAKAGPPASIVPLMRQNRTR
Description: as §1

MST1 = target: T7, MST1 (Homo sapiens, UniProt Q13043); assay: as above
T7 construct: purchased Carna Biosciences
T7 sequence (Q13043 whole entry): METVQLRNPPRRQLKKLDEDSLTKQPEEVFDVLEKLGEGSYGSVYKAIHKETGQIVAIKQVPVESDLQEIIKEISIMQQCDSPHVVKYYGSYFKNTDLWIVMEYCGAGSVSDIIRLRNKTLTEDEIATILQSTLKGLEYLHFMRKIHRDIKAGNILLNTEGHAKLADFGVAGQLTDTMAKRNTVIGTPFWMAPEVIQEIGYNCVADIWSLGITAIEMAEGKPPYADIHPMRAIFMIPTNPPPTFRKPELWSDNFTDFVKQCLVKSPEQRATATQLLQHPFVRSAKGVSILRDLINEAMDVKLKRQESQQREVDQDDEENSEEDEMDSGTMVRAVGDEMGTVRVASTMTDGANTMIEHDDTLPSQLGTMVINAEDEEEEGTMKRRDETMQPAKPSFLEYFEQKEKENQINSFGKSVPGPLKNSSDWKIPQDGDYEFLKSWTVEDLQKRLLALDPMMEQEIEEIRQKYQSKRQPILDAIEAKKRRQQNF
Description: as §1

ROCK1 = target: T8, ROCK1 (Homo sapiens, UniProt Q13464); assay: as above
T8 construct: purchased Carna Biosciences
T8 sequence (Q13464 whole entry): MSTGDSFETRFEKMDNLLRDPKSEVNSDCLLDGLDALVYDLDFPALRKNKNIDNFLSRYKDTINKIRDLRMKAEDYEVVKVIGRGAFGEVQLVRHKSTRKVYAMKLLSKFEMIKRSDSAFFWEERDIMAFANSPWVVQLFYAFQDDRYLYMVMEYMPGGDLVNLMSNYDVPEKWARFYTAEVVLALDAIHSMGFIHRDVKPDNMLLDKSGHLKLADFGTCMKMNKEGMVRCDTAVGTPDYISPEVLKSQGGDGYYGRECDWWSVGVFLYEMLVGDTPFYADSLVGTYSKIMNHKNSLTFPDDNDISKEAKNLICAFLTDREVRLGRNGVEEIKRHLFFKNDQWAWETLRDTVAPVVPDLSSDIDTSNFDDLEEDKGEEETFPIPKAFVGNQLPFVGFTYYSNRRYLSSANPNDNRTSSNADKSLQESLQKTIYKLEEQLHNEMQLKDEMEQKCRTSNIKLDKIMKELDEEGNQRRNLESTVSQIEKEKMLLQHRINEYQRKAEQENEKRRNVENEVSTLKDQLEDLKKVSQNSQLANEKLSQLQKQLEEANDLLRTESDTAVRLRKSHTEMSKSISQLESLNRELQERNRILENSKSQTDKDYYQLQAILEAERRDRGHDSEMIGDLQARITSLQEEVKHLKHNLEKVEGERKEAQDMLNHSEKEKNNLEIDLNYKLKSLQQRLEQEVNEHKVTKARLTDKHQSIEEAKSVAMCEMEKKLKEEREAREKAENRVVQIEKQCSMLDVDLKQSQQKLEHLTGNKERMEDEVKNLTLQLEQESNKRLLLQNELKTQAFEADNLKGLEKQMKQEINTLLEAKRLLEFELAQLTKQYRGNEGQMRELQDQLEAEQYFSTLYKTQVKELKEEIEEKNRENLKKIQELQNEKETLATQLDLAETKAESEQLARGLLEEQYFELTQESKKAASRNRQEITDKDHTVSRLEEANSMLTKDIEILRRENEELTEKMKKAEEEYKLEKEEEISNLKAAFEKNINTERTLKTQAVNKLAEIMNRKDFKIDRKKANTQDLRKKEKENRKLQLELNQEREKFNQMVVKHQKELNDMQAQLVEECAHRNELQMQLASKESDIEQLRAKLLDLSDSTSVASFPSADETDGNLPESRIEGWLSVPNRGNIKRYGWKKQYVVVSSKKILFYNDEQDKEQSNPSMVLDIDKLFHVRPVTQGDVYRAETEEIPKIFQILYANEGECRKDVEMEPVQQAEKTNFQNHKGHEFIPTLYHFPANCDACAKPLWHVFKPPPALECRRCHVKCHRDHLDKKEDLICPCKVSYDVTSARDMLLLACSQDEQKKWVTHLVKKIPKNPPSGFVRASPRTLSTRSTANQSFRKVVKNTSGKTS
Description: as §1

NEK2 = target: T9, NEK2 (Homo sapiens, UniProt P51955); assay: as above
T9 construct: purchased Carna Biosciences
T9 sequence (P51955 whole entry): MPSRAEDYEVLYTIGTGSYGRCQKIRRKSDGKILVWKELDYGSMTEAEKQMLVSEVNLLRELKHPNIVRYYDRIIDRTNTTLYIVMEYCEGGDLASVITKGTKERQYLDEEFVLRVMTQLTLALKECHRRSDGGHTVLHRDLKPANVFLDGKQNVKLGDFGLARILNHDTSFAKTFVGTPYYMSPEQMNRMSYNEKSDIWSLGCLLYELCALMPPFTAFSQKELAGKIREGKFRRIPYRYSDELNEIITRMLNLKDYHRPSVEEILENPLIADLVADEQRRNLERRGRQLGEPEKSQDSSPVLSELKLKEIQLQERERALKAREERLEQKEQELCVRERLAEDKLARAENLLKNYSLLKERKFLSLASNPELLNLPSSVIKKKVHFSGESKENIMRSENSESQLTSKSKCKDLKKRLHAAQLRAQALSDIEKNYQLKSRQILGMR
Description: as §1

T1 sequence (Q9UKE5 1-314): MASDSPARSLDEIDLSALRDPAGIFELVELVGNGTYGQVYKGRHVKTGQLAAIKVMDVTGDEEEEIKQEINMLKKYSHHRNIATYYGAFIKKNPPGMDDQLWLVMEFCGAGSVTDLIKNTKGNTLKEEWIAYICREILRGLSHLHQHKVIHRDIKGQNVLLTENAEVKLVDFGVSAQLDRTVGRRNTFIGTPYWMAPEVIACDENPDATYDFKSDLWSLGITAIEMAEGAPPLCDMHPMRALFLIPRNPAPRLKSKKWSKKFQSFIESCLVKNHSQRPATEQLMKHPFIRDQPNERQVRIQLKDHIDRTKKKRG

- IC50 [1]: 9 nM
- IC50 (PKCa): > 300 nM
- IC50 (CK1e): > 300 nM
- IC50 (JNK2): > 300 nM
- IC50 (IKKb): > 300 nM
- IC50 (PAK4): > 300 nM
- IC50 (MST1): > 300 nM
- IC50 (ROCK1): > 300 nM
- IC50 (NEK2): > 300 nM
SMILES: CC(=O)Nc1ccc(C(=O)Nc2sc(Nc3ccccc3)nc2C(N)=O)cc1 [Compound 1, 5-(4-acetamidobenzamido)-2-(phenylamino)thiazole-4-carboxamide]
